Measurements published in ChEMBL document CHEMBL3885881, “DrugMatrix”.

Organism: Rattus norvegicus
Assay: DrugMatrix - Regimen: Daily Repeat
Assay type: toxicity, organism-based, Sprague-Dawley
Set-up: regimen Daily Repeat, gender Male, age 6-8 weeks
Details: in vivo, iv, […], vehicle 100 % SALINE; for ALANINE AMINOTRANSFERASE / ALBUMIN / ALKALINE PHOSPHATASE / ASPARTATE AMINOTRANSFERASE / BLOOD UREA NITROGEN / CARBON DIOXIDE / CHLORIDE / CHOLESTEROL / CREATINE PHOSPHOKINASE / CREATININE / GLUCOSE / LACTATE DEHYDROGENASE / LIPASE / PHOSPHORUS / POTASSIUM / SODIUM / TOTAL BILIRUBIN / TOTAL PROTEIN / URIC ACID: tissue Plasma; for ABSOLUTE BASOPHIL / ABSOLUTE EOSINOPHIL / ABSOLUTE LYMPHOCYTE / ABSOLUTE MONOCYTE / ABSOLUTE SEGMENTED NEUTROPHIL / BASOPHIL / EOSINOPHIL / ERYTHROCYTE COUNT / HEMATOCRIT / HEMOGLOBIN / LEUKOCYTE COUNT / LYMPHOCYTE / MEAN CORPUSCULAR HEMOGLOBIN / MEAN CORPUSCULAR HEMOGLOBIN CONCENTRATION / MEAN CORPUSCULAR VOLUME / MONOCYTE / NEUTROPHIL / NUCLEATED RED BLOOD CELLS / PLATELET COUNT: tissue Blood
[1] = 72 h, dose 0.0033 mg/Kg, dose level Low, time 3 day
[2] = 72 h, dose 0.033 mg/Kg, dose level High, time 3 day
[3] = 120 h, dose 0.0033 mg/Kg, dose level Low, time 5 day
[4] = 120 h, dose 0.033 mg/Kg, dose level High, time 5 day

COc1cc2c3cc1Oc1cc(ccc1O)C[C@@H]1c4c(cc(OC)c(O)c4Oc4ccc(cc4)C[C@@H]3N(C)CC2)CC[N+]1(C)C.[Cl-]
ALANINE AMINOTRANSFERASE [1]: 58 u/L | ALBUMIN [1]: 4.23 G/DL | ALKALINE PHOSPHATASE [1]: 467.33 u/L | ASPARTATE AMINOTRANSFERASE [1]: 94 u/L | BLOOD UREA NITROGEN [1]: 17 mg/dL | CARBON DIOXIDE [1]: 33 mmol/L | CHLORIDE [1]: 101 MEQ/L | CHOLESTEROL [1]: 69.33 mg/dL | CREATINE PHOSPHOKINASE [1]: 839.67 u/L | CREATININE [1]: 0.22 mg/dL | GLUCOSE [1]: 165 mg/dL | LACTATE DEHYDROGENASE [1]: 138 u/L | LIPASE [1]: 8.33 u/L | PHOSPHORUS [1]: 10.83 mg/dL | POTASSIUM [1]: 5.81 MEQ/L | SODIUM [1]: 143.17 MEQ/L | TOTAL BILIRUBIN [1]: 0.2 mg/dL | TOTAL PROTEIN [1]: 5.87 G/DL | URIC ACID [1]: 0.9 mg/dL | ALANINE AMINOTRANSFERASE [2]: 56 u/L | ALBUMIN [2]: 3.97 G/DL | ALKALINE PHOSPHATASE [2]: 312.33 u/L | ASPARTATE AMINOTRANSFERASE [2]: 91.67 u/L | BLOOD UREA NITROGEN [2]: 16.33 mg/dL | CARBON DIOXIDE [2]: 28 mmol/L | CHLORIDE [2]: 101.33 MEQ/L | CHOLESTEROL [2]: 75.33 mg/dL | CREATINE PHOSPHOKINASE [2]: 431.33 u/L | CREATININE [2]: 0.2 mg/dL | GLUCOSE [2]: 169 mg/dL | LACTATE DEHYDROGENASE [2]: 240.33 u/L | LIPASE [2]: 12.67 u/L | PHOSPHORUS [2]: 11.4 mg/dL | POTASSIUM [2]: 5.83 MEQ/L | SODIUM [2]: 141.23 MEQ/L | TOTAL BILIRUBIN [2]: 0.2 mg/dL | TOTAL PROTEIN [2]: 5.67 G/DL | URIC ACID [2]: 1.5 mg/dL | ABSOLUTE BASOPHIL [3]: 0 CELLS/uL | ABSOLUTE EOSINOPHIL [3]: 0 CELLS/uL | ABSOLUTE LYMPHOCYTE [3]: 11354.67 CELLS/uL | ABSOLUTE MONOCYTE [3]: 87 CELLS/uL | ABSOLUTE SEGMENTED NEUTROPHIL [3]: 958.33 CELLS/uL | BASOPHIL [3]: 0% | EOSINOPHIL [3]: 0% | ERYTHROCYTE COUNT [3]: 5.2 x10E6/uL | HEMATOCRIT [3]: 33.13% | HEMOGLOBIN [3]: 13.43 G/DL | LEUKOCYTE COUNT [3]: 12.4 x10E3/uL | LYMPHOCYTE [3]: 91.67% | MEAN CORPUSCULAR HEMOGLOBIN [3]: 25.8 pg | MEAN CORPUSCULAR HEMOGLOBIN CONCENTRATION [3]: 40.53 G/DL | MEAN CORPUSCULAR VOLUME [3]: 63.7 fL | MONOCYTE [3]: 0.67% | NEUTROPHIL [3]: 7.67% | NUCLEATED RED BLOOD CELLS [3]: 0 /100WBC | PLATELET COUNT [3]: 1167.67 x10E3/uL | ABSOLUTE BASOPHIL [4]: 0 CELLS/uL | ABSOLUTE EOSINOPHIL [4]: 146 CELLS/uL | ABSOLUTE LYMPHOCYTE [4]: 11010.33 CELLS/uL | ABSOLUTE MONOCYTE [4]: 173 CELLS/uL | ABSOLUTE SEGMENTED NEUTROPHIL [4]: 1104 CELLS/uL | BASOPHIL [4]: 0% | EOSINOPHIL [4]: 1% | ERYTHROCYTE COUNT [4]: 5.51 x10E6/uL | HEMATOCRIT [4]: 34.03% | HEMOGLOBIN [4]: 13.57 G/DL | LEUKOCYTE COUNT [4]: 12.43 x10E3/uL | LYMPHOCYTE [4]: 88.67% | MEAN CORPUSCULAR HEMOGLOBIN [4]: 24.63 pg | MEAN CORPUSCULAR HEMOGLOBIN CONCENTRATION [4]: 39.87 G/DL | MEAN CORPUSCULAR VOLUME [4]: 61.77 fL | MONOCYTE [4]: 1.33% | NEUTROPHIL [4]: 9% | NUCLEATED RED BLOOD CELLS [4]: 0 /100WBC | PLATELET COUNT [4]: 1282.67 x10E3/uL | ALANINE AMINOTRANSFERASE [3]: 55.67 u/L | ALBUMIN [3]: 4.07 G/DL | ALKALINE PHOSPHATASE [3]: 352.67 u/L | ASPARTATE AMINOTRANSFERASE [3]: 91.67 u/L | BLOOD UREA NITROGEN [3]: 20.67 mg/dL | CARBON DIOXIDE [3]: 28 mmol/L | CHLORIDE [3]: 102.67 MEQ/L | CHOLESTEROL [3]: 72.67 mg/dL | CREATINE PHOSPHOKINASE [3]: 402.33 u/L | CREATININE [3]: 0.22 mg/dL | GLUCOSE [3]: 169 mg/dL | LACTATE DEHYDROGENASE [3]: 354.67 u/L | LIPASE [3]: 10 u/L | PHOSPHORUS [3]: 11.7 mg/dL | POTASSIUM [3]: 6.36 MEQ/L | SODIUM [3]: 144.1 MEQ/L | TOTAL BILIRUBIN [3]: 0.17 mg/dL | TOTAL PROTEIN [3]: 5.8 G/DL | URIC ACID [3]: 1.53 mg/dL | ALANINE AMINOTRANSFERASE [4]: 66.33 u/L | ALBUMIN [4]: 4.17 G/DL | ALKALINE PHOSPHATASE [4]: 366.33 u/L | ASPARTATE AMINOTRANSFERASE [4]: 97.67 u/L | BLOOD UREA NITROGEN [4]: 17.33 mg/dL | CARBON DIOXIDE [4]: 29.33 mmol/L | CHLORIDE [4]: 101.33 MEQ/L | CHOLESTEROL [4]: 68.67 mg/dL | CREATINE PHOSPHOKINASE [4]: 303.67 u/L | CREATININE [4]: 0.15 mg/dL | GLUCOSE [4]: 156.33 mg/dL | LACTATE DEHYDROGENASE [4]: 446 u/L | LIPASE [4]: 10.67 u/L | PHOSPHORUS [4]: 11.53 mg/dL | POTASSIUM [4]: 5.71 MEQ/L | SODIUM [4]: 142.9 MEQ/L | TOTAL BILIRUBIN [4]: 0.2 mg/dL | TOTAL PROTEIN [4]: 5.73 G/DL | URIC ACID [4]: 1.33 mg/dL
